Reference: patent US20210227824A1, “METHOD OF REDUCING CROP DAMAGE” (Bayer Aktiengesellschaft, priority 2018, published 2021)

Columns and labels:
Format in all cases: in vivo
winter wheat, TRZAW [1] = assay: Method A: safener seed treatment, herbicide post-emergence, visual % crop damage; conditions: safener seed treatment 0.5 g/kg only, no herbicide
Description: (§1) For the safener seed treatment, sufficient seeds were weighed into screw top glass bottles approximately twice the volume of the seeds.
(§2) The safener (mefenpyr-diethyl, formulated as suspension concentrate (SC)) was weighed out so that the required rates (g a.i./kg seed) would be obtained, dissolved in water (1 ml water per 10 g of seeds), and added to the seeds to produce a slurry.
(§3) The bottles were capped and then placed in an overhead shaker (set at medium speed for up to 1 hour) so that the seeds were evenly coated with the slurry. The bottles were uncapped and the seeds were sown as described above.
(§4) For the seed treatment process, the blind formulation (the SC formulation without the safener mefenpyr-diethyl) was used as seed treatment as described above.
Post-emergence application of the herbicide was done when the plants had reached growth stage BBCH11.
(§5) After application, the test plants were kept in the greenhouse under good growth conditions.
(§6) Values in the table below are mean values from at least 3 replicates.

winter wheat, TRZAW [2] = assay: Method D: safener seed treatment, herbicide and safener tank mix pre-emergence, visual % crop damage
Description: as §1, §2, §3, §4
(§7) The combination of herbicide and safener was applied as a tank mix.
as §5, §6

winter wheat, TRZAW [3] = assay: Method C: safener seed treatment, herbicide and safener tank mix post-emergence, visual % crop damage
Description: as §1, §2, §3, §4
Post-emergence application was done when the plants had reached growth stage BBCH11.
The safener (mefenpyr-diethyl) was formulated as wettable powder (WP).
as §7, §5, §6

[4] = safener seed treatment 0.5 g/kg only, no herbicide

## CCOC(=O)C1=NN(c2ccc(Cl)cc2Cl)C(C)(C(=O)OCC)C1 (centres unmarked) [Safener seed treatment, ethyl 1-(2,4-dichlorophenyl)-5-(ethoxycarbonyl)-5-methyl-2-pyrazoline-3-carboxylate]
Winter wheat, TRZAW [1]
  % crop damage: 0%
Winter wheat, TRZAW [2]; safener 200 g/ha in tank mix only, pre-emergence, 14 days after application
  % crop damage: 5%
Winter wheat, TRZAW [2]; [4]
  % crop damage: 2%
Winter wheat, TRZAW [3]; safener 200 g/ha in tank mix only, post-emergence, 14 days after application
  % crop damage: 5%
Winter wheat, TRZAW [3]; [4]
  % crop damage: 0%
